# How the values were obtained:
# [1] = test system: Vesicular Stomatitis Virus (VSV) pseudotyped with EBOV glycoprotein; assay: microbe, parasite or virus in culture; type: cell-based, Ebola virus; conditions: HeLa, read-out: IC50, inhibition of EBOV-VSV pseudovirus entry
# [2] = test system: Marburg virus (MARV), Musoke strain; assay: organism not typed; type: cell-based; conditions: HeLa; n=6; read-out: IC50 ± SEM versus MARV Musoke strain
# [3] = test system: Marburg virus/H.sapiens-tc/KEN/1980/Mt. Elgon-Musoke (MARV/Mus); assay: organism not typed; type: cell-based; conditions: HeLa
# [4] = test system: Chikungunya virus; assay: microbe, parasite or virus in culture; type: cell-based; conditions: Vero 76
# [5] = test system: Influenza A virus H1N1; assay: microbe, parasite or virus in culture; type: cell-based; conditions: H1N1, MDCK
# [6] = test system: Hepatitis B virus; assay: microbe, parasite or virus in culture; type: cell-based; conditions: HepG2 2.2.15
# [7] = guinea pig, microsomes
# [8] = mouse, microsomes; cited from earlier work
smiles,measurement,setting,value
"COc1ccc2nc3cc(Cl)ccc3c(Nc3cc(CN4CCCC4)c(O)c(CN4CCCC4)c3)c2n1 [Pyronaridine, 4-[(7-Chloro-2-methoxybenzo[b][1,5]naph-thyridin-10-yl)amino]-2,6-bis(1-pyrrolidinylmethyl)phenol phosphate (1:4)]",IC50,[1],2.07 µM
same,IC50,[2],1.08 ± 0.197 µM
same,IC50,[3],1.01 ± 0.11 µM
same,EC50,[4],3.2 µM
same,EC50,[5],3.2 µM
same,EC50,[6],4.52 µM
same,EC90,[6],> 100 µM
same,Clint,[7],21.0
same,"Dextromethorphan: compound, t1/2 normalized to dextromethorphan control",[7],23.4
same,t1/2,[7],1.1 h
same,Relative Peak Area/Abundance MLM,[8],100%
